Results from ChEMBL document CHEMBL5365510, “Discovery of Novel, Thienopyridine-Based Tyrosine Kinase Inhibitors Targeting Tumorigenic RON Splice Variants” (ACS Med Chem Lett, 2023).
The source made the active and inactive calls. The calls are words filed in the database; no cut-off is given here.

Columns and labels:
[1] = target: Hepatocyte growth factor receptor (Homo sapiens, UniProt P08581); experiment: Inhibition of c-Met (unknown origin)
[2] = test system: CAPAN-1; experiment: Antiproliferative activity against human CAPAN-1 cells harbouring KRAS G12V mutant and RON delta 155 assessed as cell growth inhibition measured after 72 hrs by MTS assay; type: functional
[3] = test system: SW-620; experiment: Antiproliferative activity against human SW620 cells harbouring KRAS G12 V mutant and RON delta 155 assessed as cell growth inhibition measured after 72 hrs by MTS assay; type: functional
[4] = test system: HCT-15; experiment: Antiproliferative activity against human HCT-15 cells harbouring KRAS G13D mutant and RON delta 160 assessed as cell growth inhibition measured after 72 hrs by MTS assay; type: functional
[5] = test system: PANC-1; experiment: Antiproliferative activity against human PANC-1 cells harbouring KRAS G12D mutant and RON delta 155 assessed as cell growth inhibition measured after 72 hrs by MTS assay; type: functional
[6] = Antiproliferative activity against human SNU-1047 cells harbouring wild-type KRAS and RON delta 155 assessed as cell growth inhibition measured after 72 hrs by MTS assay; type: functional
[7] = test system: KM12C; experiment: Antiproliferative activity against human KM12-C cells harbouring wild-type KRAS and RON delta 160 assessed as cell growth inhibition measured after 72 hrs by MTS assay; type: functional
[8] = test system: SW1417; experiment: Antiproliferative activity against human SW1417 cells harbouring wild-type KRAS and RON delta 155 assessed as cell growth inhibition measured after 72 hrs by MTS assay; type: functional
[9] = test system: SW480; experiment: Antiproliferative activity against human SW480 cells harbouring KRAS G12V mutant and RON delta 155 assessed as cell growth inhibition measured after 72 hrs by MTS assay; type: functional
[10] = Antitumor activity against patient derived Colorectal cancer cell harbouring wild-type KRAS and RON delta 160 xenografted in BALB/c mouse assessed as tumor growth inhibition at 10 mg/kg, po qd measured after 28 days; type: functional; settings: Homo sapiens, 672 h, time 28 day, read-out: TGI
[11] = test system: PANC-03-27; experiment: Antiproliferative activity against human Panc 03.27 cells harbouring KRAS G12V mutant and RON delta 155 assessed as cell growth inhibition measured after 72 hrs by MTS assay; type: functional
[12] = test system: SW-620; experiment: Antitumor activity against human SW620 cells harbouring RON delta 155 xenografted in BALB/c mouse assessed as tumor growth inhibition at 30 mg/kg, po qd measured after 28 days; type: functional; settings: SW-620, 672 h, time 28 day, read-out: TGI
[13] = test system: HT-29; experiment: Antiproliferative activity against human HT-29 cells harbouring wild-type KRAS and RON delta 160 assessed as cell growth inhibition measured after 72 hrs by MTS assay; type: functional
[14] = test system: T84; experiment: Antitumor activity against human T84 cells harbouring RON delta 165 xenografted in BALB/c mouse assessed as tumor growth inhibition at 30 mg/kg, po qd measured after 34 days; type: functional; settings: T84, 816 h, time 34 day, read-out: TGI
[15] = test system: LS-411N; experiment: Antiproliferative activity against human LS-411N cells harbouring wild-type KRAS and RON delta 155 assessed as cell growth inhibition measured after 72 hrs by MTS assay; type: functional
[16] = test system: ASPC1; experiment: Antiproliferative activity against human ASPC1 cells harbouring KRAS G12D mutant and RON delta 165 assessed as cell growth inhibition measured after 72 hrs by MTS assay; type: functional
[17] = test system: MIA PaCa-2; experiment: Antiproliferative activity against human MIA PaCa-2 cells harbouring KRAS G12C mutant and RON delta 160 assessed as cell growth inhibition measured after 72 hrs by MTS assay; type: functional
[18] = Antiproliferative activity against human SW480E cells harbouring KRAS G12V mutant and RON delta 160 assessed as cell growth inhibition measured after 72 hrs by MTS assay; type: functional
[19] = target: T1, Macrophage-stimulating protein receptor (Homo sapiens, UniProt Q04912); experiment: Inhibition of N-terminal GST-tagged human recombinant RON (979 to 1400(end) residues) expressed in Sf21 cells incubated for 20 mins followed by ATP addition measured after 60 mins by TR-FRET based LanthaScreen kinase assay
[20] = test system: KM12C; experiment: Antiproliferative activity against human KM12-C cells harbouring wild-type KRAS and RON delta 160 assessed as cell death rate at 5 uM measured after 48 hrs by trypan blue exclusion assay relative to control; type: functional
[21] = test system: HT-29; experiment: Antiproliferative activity against human HT-29 cells harbouring wild-type KRAS and RON delta 160 assessed as cell death rate at 5 uM measured after 48 hrs by trypan blue exclusion assay relative to control; type: functional
[22] = target: T1, Macrophage-stimulating protein receptor; experiment: Inhibition of RON (unknown origin)
[23] = Oral bioavailability in Sprague-Dawley rat at 5 mg/kg measured after 24 hrs by LC/MS/MS analysis; type: ADME, organism-based; settings: Sprague-Dawley, in vivo
[24] = Metabolic stability in human liver microsomes assessed as parent compound remaining after 30 mins in presence of NADPH by LC/MS/MS analysis; type: ADME, Microsome; settings: read-out: Stability
[25] = Tmax in Sprague-Dawley rat at 5 mg/kg, po measured after 24 hrs by LC/MS/MS analysis; type: ADME, organism-based; settings: in vivo
[26] = AUC(0 to infinity) in Sprague-Dawley rat at 5 mg/kg, po measured after 24 hrs by LC/MS/MS analysis; type: ADME, organism-based; parameters: dose 5 mg/kg, time 24 hrs, route po; settings: Sprague-Dawley, in vivo
[27] = Volume of distribution at steady state in Sprague-Dawley rat at 1 mg/kg, iv measured after 24 hrs by LC/MS/MS analysis; type: ADME, organism-based; settings: in vivo, read-out: Vdss
[28] = Half life in Sprague-Dawley rat at 5 mg/kg, po measured after 24 hrs by LC/MS/MS analysis; type: ADME, organism-based; settings: in vivo
[29] = Half life in Sprague-Dawley rat at 1 mg/kg, iv measured after 24 hrs by LC/MS/MS analysis; type: ADME, organism-based; settings: in vivo
[30] = Clearance in Sprague-Dawley rat at 1 mg/kg, iv measured after 24 hrs by LC/MS/MS analysis; type: ADME, organism-based; settings: Sprague-Dawley, in vivo
[31] = Cmax in Sprague-Dawley rat at 5 mg/kg, po measured after 24 hrs by LC/MS/MS analysis; type: ADME, organism-based; parameters: dose 5 mg/kg, time 24 hrs, route po; settings: in vivo
[32] = AUC(0 to infinity) in Sprague-Dawley rat at 1 mg/kg, iv measured after 24 hrs by LC/MS/MS analysis; type: ADME, organism-based; parameters: time 24 hrs, dose 1 mg/kg, route iv; settings: Sprague-Dawley, in vivo

Hepatocyte growth factor receptor, sequence (P08581 whole entry): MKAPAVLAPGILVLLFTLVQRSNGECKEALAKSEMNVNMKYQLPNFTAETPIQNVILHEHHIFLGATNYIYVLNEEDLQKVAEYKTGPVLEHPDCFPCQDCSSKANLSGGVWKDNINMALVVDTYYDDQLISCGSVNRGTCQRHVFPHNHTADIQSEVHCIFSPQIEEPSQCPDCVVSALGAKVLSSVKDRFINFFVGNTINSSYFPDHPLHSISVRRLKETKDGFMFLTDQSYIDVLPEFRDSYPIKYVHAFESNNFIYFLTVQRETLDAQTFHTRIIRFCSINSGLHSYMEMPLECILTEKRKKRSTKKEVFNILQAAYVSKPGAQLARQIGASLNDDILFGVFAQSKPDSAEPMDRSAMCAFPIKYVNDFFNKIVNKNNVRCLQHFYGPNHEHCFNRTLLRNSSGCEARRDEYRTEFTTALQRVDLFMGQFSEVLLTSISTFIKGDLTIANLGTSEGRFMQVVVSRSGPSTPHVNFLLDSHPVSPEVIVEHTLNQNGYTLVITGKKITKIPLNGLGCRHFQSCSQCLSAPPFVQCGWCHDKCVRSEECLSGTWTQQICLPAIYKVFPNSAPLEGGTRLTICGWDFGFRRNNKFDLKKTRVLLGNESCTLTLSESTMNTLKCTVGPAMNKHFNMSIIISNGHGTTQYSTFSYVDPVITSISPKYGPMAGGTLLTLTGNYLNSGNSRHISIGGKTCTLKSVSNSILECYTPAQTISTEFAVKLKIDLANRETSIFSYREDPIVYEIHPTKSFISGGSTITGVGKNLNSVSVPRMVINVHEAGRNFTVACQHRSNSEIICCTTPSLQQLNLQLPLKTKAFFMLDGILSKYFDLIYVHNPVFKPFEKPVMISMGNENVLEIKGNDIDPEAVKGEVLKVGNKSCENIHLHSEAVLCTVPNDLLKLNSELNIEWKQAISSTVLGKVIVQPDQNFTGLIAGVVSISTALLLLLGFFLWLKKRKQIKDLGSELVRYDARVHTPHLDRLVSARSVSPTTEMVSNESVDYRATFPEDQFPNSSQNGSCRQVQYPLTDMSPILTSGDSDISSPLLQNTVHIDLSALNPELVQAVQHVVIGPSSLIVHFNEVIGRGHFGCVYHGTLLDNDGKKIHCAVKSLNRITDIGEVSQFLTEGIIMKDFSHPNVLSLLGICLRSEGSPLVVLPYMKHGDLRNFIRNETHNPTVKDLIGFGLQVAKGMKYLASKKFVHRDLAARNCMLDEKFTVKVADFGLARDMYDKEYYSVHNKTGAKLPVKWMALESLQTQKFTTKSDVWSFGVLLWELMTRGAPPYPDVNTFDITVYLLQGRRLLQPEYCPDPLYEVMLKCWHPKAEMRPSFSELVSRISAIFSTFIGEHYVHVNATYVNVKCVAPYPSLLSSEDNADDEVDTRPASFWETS

| SMILES | GI50 [3] [nM] | GI50 [7] [nM] | GI50 [13] [nM] | IC50 [19] [nM] | also measured |
| --- | --- | --- | --- | --- | --- |
| COc1ccc2c(Oc3ccc(NC(=O)c4c(C)n(CC(C)(C)O)n(-c5ccccc5)c4=O)cc3F)ccnc2c1 |  |  |  |  | IC50 [1]: 9 nM |
| CCOc1ccn(-c2ccc(F)cc2)c(=O)c1C(=O)Nc1ccc(Oc2ccnc(N)c2Cl)c(F)c1 [BMS-777607] | 860 | 133 | > 10000 |  | GI50 [2]: 9020 nM; GI50 [4]: 5000 nM; GI50 [5]: > 10000 nM; GI50 [6]: > 10000 nM; GI50 [8]: > 10000 nM; GI50 [9]: > 10000 nM; inhibition in vivo at 10 mg/kg [10]: 1.5%; GI50 [11]: > 10000 nM; inhibition in vivo at 30 mg/kg [12]: 41.6%; inhibition in vivo at 30 mg/kg [14]: 46.9%; GI50 [15]: > 10000 nM; GI50 [16]: > 10000 nM; GI50 [17]: > 10000 nM; GI50 [18]: > 10000 nM |
| CCOc1ccn(-c2cccc(F)c2)c(=O)c1C(=O)Nc1ccc(Oc2ccnc3cc(-c4ccc(CN5CCOCC5)cn4)sc23)c(F)c1 | 640 | 42 | 395 | 0.74 | Activity [20]: Active; Activity [21]: Active |
| Cc1ccc(C(=O)Nc2ccc(Oc3cc4cnn(C)c4cc3-c3cn[nH]c3)c(F)c2)c(=O)n1-c1ccc(F)cc1 [MERESTINIB] |  |  |  |  | IC50 [22]: 12 nM |
| C[C@@H](Oc1cc(-c2cnn(C3CCNCC3)c2)cnc1N)c1c(Cl)ccc(F)c1Cl [CRIZOTINIB] |  |  | 4000 |  | GI50 [2]: 5120 nM; GI50 [5]: 2560 nM; GI50 [9]: > 10000 nM; inhibition in vivo at 10 mg/kg [10]: 27.5%; GI50 [11]: 6350 nM; GI50 [16]: 2380 nM; GI50 [17]: 1460 nM |
| CCCOc1ccn(-c2ccc(F)cc2)c(=O)c1C(=O)Nc1ccc(Oc2ccnc3cc(-c4ccc(CN5CCOCC5)cn4)sc23)c(F)c1 | 590 | 10 | 500 | 0.49 | Activity [20]: Active; Activity [21]: Active |
| CC(C)COc1ccn(-c2ccc(F)cc2)c(=O)c1C(=O)Nc1ccc(Oc2ccnc3cc(-c4ccc(CN5CCOCC5)cn4)sc23)c(F)c1 | 380 | 3 | 160 | 0.62 | Activity [20]: Active; Activity [21]: Active |
| CCOc1ccn(-c2ccccc2)c(=O)c1C(=O)Nc1ccc(Oc2ccnc3cc(-c4ccc(CN5CCOCC5)cn4)sc23)c(F)c1 | 260 | 3 |  |  | Activity [20]: Active; Activity [21]: Active |
| CCCCOc1ccn(-c2ccc(F)cc2)c(=O)c1C(=O)Nc1ccc(Oc2ccnc3cc(-c4ccc(CN5CCOCC5)cn4)sc23)c(F)c1 | 1000 | 15 | 840 | 0.98 |  |
| CCOc1ccn(-c2ccc(F)cc2)c(=O)c1C(=O)Nc1ccc(Oc2ccnc3cc(-c4cn(C)cn4)sc23)c(F)c1 | 810 | 27 | 570 | 0.41 | bioavailability [23]: 30.5%; remaining at 0.5 h [24]: 49%; Tmax [25]: 2.67 h; AUC(0-inf) [26]: 6670 ng·h/mL; Vd [27]: 0.64 L/kg; half-life [28]: 3.79 h; half-life [29]: 3.03 h; IC50 [22]: 9 nM; IC50 [1]: 4 nM; clearance [30]: 3.83 mL/min/kg; Cmax [31]: 810 ng/mL; AUC(0-inf) [32]: 4370 ng·h/mL |
| CCOc1ccn(-c2ccc(F)cc2)c(=O)c1C(=O)Nc1ccc(Oc2ccnc3cc(-c4ccc(OCCN5CCOCC5)cn4)sc23)c(F)c1 | 1560 | 38 | 2770 | 2.39 |  |
| CCOc1ccn(-c2ccc(F)cc2)c(=O)c1C(=O)Nc1ccc(Oc2ccnc3cc(-c4ccccn4)sc23)c(F)c1 | 1550 | 22 | 3140 | 0.48 |  |
| CCOc1ccn(-c2ccc(F)cc2)c(=O)c1C(=O)Nc1ccc(Oc2ccnc3cc(-c4ccc(CN5CCC(F)C5)cn4)sc23)c(F)c1 (configuration not stated) | 540 | 16 | 650 | 0.82 |  |
| CCOc1ccn(-c2ccc(F)cc2)c(=O)c1C(=O)Nc1ccc(Oc2ccnc3cc(-c4ccc(CN5CC(OC)C5)cn4)sc23)c(F)c1 | 1030 | 27 | 1640 | 0.16 |  |
| CCOc1ccn(-c2ccc(F)cc2)c(=O)c1C(=O)Nc1ccc(Oc2ccnc3cc(-c4ccc(CCN5CCOCC5)cn4)sc23)c(F)c1 | 830 | 26 | 650 | 2.83 |  |
| CCOc1ccn(-c2ccc(F)cc2)c(=O)c1C(=O)Nc1ccc(Oc2ccnc3cc(-c4ccc(CN5CC(F)C5)cn4)sc23)c(F)c1 | 200 | 16 | 1250 | 0.63 |  |
| CCOc1ccn(-c2ccc(F)cc2)c(=O)c1C(=O)Nc1cc(F)c(Oc2ccnc3cc(-c4ccc(CN5CCOCC5)cn4)sc23)c(F)c1 | 1350 | 40 | 642 | 2.25 |  |
